Test results as given in US4971974A, “Benzothiophenes as appetite suppressants” (Neurex Corporation, priority 1988, dated 1990).

Experiments:
[1] = Food intake in food-deprived rats after ip injection (Example 1); format: in vivo; details: for Post-Drug Food Intake, 0-1 hr / Post-Drug Food Intake, 1-2 hr / Post-Drug Food Intake, 2-6 hr / Post-Drug Food Intake, 6-8 hr / Post-Drug Food Intake, 8-24 hr / Cumulative Food Intake, 1 hr / Cumulative Food Intake, 2 hr / Cumulative Food Intake, 6 hr / Cumulative Food Intake, 8 hr / Cumulative Food Intake, 24 hr: mean ± SD; for Post-Drug Food Intake, 0-1 hr / Cumulative Food Intake, 1 hr: control 5.3 ± 1.3; for Post-Drug Food Intake, 1-2 hr: control 0.6 ± 0.7; for Post-Drug Food Intake, 2-6 hr: control 2.5 ± 1.6; for Post-Drug Food Intake, 6-8 hr: control 2.0 ± 1.0; for Post-Drug Food Intake, 8-24 hr: control 20.8 ± 1.7; for Cumulative Food Intake, 2 hr: control 5.9 ± 1.2; for Cumulative Food Intake, 6 hr: control 8.4 ± 0.9; for Cumulative Food Intake, 8 hr: control 10.4 ± 1.6; for Cumulative Food Intake, 24 hr: control 31.2 ± 2.1
Procedure: Forty-eight 70-to-80-day-old male rats (Bantin & Kingman, Fremont, Calif.) were housed singly in suspended cages, and were acclimated to the laboratory setting for a period of 12 days prior to testing. During this time, they were allowed ad libitum access to food (Ralston-Purina #5001M) and water. The room was kept at 24°-27° C. and maintained on a 12:12-hr light:dark schedule (0700-1900 h).
Animals matched by body weight and mean daily food intake were assigned to 4 groups (n=12/group). Food jars were removed at 0900 h. Twenty-four hours later, rats were injected with either sterile 0.9% saline or saline containing 1,2,3,4-tetrahydrobenzo[b]thieno[2,3-c]pyridine HCl (5, 10, or 25 mg/kg, ip). Pre-weighed food jars containing meal (Ralston-Purina #5001M) were presented immediately post-injection. These were weighed at intervals over the next 24 hours, and food consumption was calculated for each interval. Animals were provided with water in quantities sufficient for ad libitum consumption throughout the experiment.
To assess the duration of the drug-induced anorexia and rebound feeding behavior, food intake was measured at several time intervals after drug administration.

[2] = Alteration of macronutrient preference in rats, 75% or 25% carbohydrate test diets (Example 2); format: in vivo, rats (Sprague-Dawley); details: rat; for cumulative amount of 25% Carbohydrate diet consumed, 1 hr / cumulative amount of 25% Carbohydrate diet consumed, 2 hr / cumulative amount of 75% Carbohydrate diet consumed, 1 hr / cumulative amount of 75% Carbohydrate diet consumed, 2 hr: mean±SEM; for cumulative amount of 25% Carbohydrate diet consumed, 1 hr: saline 6.4 ± 0.5; for cumulative amount of 25% Carbohydrate diet consumed, 2 hr: saline 7.5 ± 1.7; for cumulative amount of 75% Carbohydrate diet consumed, 1 hr: saline 6.6 ± 0.5; for cumulative amount of 75% Carbohydrate diet consumed, 1 hr / cumulative amount of 75% Carbohydrate diet consumed, 2 hr: significant p < 0.01; for cumulative amount of 75% Carbohydrate diet consumed, 2 hr: saline 8.4 ± 1.6
Procedure: Sixty adult male rats (Sprague-Dawley, 225-300 g) were acclimated to laboratory conditions for a period of 10 days, during which they were allowed unrestricted access to food (Ralston-Purina #5001M) and water. All subjects were housed in individual cages, and the animal facility was maintained on a 12:12 hour light:dark cycle at 24°-27° C.
Animals were assigned to 6 groups (10 per group), then allowed to consume, ad libitum, one of two iso-nitrogenous test diets containing either 75% or 25% carbohydrate. After 3 days, food jars were removed. After an additional 24 hours, rats were administered either saline or 1,2,3,4-tetrahydrobenzo[b]thieno[2,3-c]pyridine (1.5 or 3.0 mg/Kg body weight), then given immediate access to the test diets. Data listed in Table 3 indicate the cumulative amount in grams (mean±SEM) of each diet consumed by the experimental and control groups during the subsequent 2-hour period.

[3] = Acute toxicity studies in mice; details: mouse, in vivo, ip, intraperitoneally
Procedure: In acute toxicity studies in mice, 1,2,3,4-tetrahydrobenzo[b]thieno[2,3-c]pyridine yields LD50 values in excess of 100 mg/kg when administered intraperitoneally and 100 mg/kg when administered by the oral route.

[4] = U.S. Pat. Nos. 3,636,218; 3,518,278; Miller et al; cited from earlier work
[5] = in vivo; cited from earlier work
[6] = rat, 5 mg/Kg ip, significant p < 0.02
[7] = rat, 10 mg/Kg ip, significant p < 0.02
[8] = rat, 25 mg/Kg ip, significant p < 0.05
[9] = rat, 25 mg/Kg ip, significant p < 0.02

Q: With c1ccc2c3c(sc2c1)CNCC3 [1,2,3,4-tetrahydrobenzo[b]thieno[2,3-c]pyridine] as the compound, how does the “Post-Drug Food Intake, 0-1 hr” value ([1]; rat, 5 mg/Kg ip, significant p < 0.05) read?
A: 1.3 ± 0.6 gm

Q: What about the “Post-Drug Food Intake, 1-2 hr” value ([1]; rat, 5 mg/Kg ip) of the same compound?
A: 1.2 ± 0.6 gm

Q: What about the “Post-Drug Food Intake, 2-6 hr” value ([1]; rat, 5 mg/Kg ip) of the same compound?
A: 4.9 ± 1.6 gm

Q: And the “Post-Drug Food Intake, 6-8 hr” value ([1]; rat, 5 mg/Kg ip)?
A: 1.8 ± 1.3 gm

Q: What about the “Post-Drug Food Intake, 8-24 hr” value ([1]; rat, 5 mg/Kg ip) of the same compound?
A: 18.2 ± 1.9 gm

Q: And the “Cumulative Food Intake, 1 hr” value [1, 6]?
A: 1.3 ± 0.6 gm

Q: And the “Cumulative Food Intake, 2 hr” value [1, 6]?
A: 2.5 ± 0.7 gm

Q: And the “Cumulative Food Intake, 6 hr” value ([1]; rat, 5 mg/Kg ip)?
A: 7.4 ± 1.6 gm

Q: What about the “Cumulative Food Intake, 8 hr” value ([1]; rat, 5 mg/Kg ip) of the same compound?
A: 9.2 ± 1.6 gm

Q: And the “Cumulative Food Intake, 24 hr” value ([1]; rat, 5 mg/Kg ip)?
A: 27.4 ± 2.8 gm

Q: What about the “food consumption in rats” value ([1]; rat, 5 mg/kg intraperitoneally) of the same compound?
A: significantly reduce food consumption in rats

Q: What about the “Post-Drug Food Intake, 0-1 hr” value ([1]; rat, 10 mg/Kg ip, significant p < 0.05) of the same compound?
A: 0.9 ± 0.9 gm

Q: And the “Post-Drug Food Intake, 1-2 hr” value ([1]; rat, 10 mg/Kg ip)?
A: 1.1 ± 0.8 gm

Q: And the “Post-Drug Food Intake, 2-6 hr” value ([1]; rat, 10 mg/Kg ip)?
A: 4.3 ± 1.8 gm

Q: And the “Post-Drug Food Intake, 6-8 hr” value ([1]; rat, 10 mg/Kg ip)?
A: 1.4 ± 0.6 gm

Q: What about the “Post-Drug Food Intake, 8-24 hr” value ([1]; rat, 10 mg/Kg ip) of the same compound?
A: 19.2 ± 2.8 gm

Q: What about the “Cumulative Food Intake, 1 hr” value [1, 7] of the same compound?
A: 0.9 ± 0.9 gm

Q: What about the “Cumulative Food Intake, 2 hr” value [1, 7] of the same compound?
A: 2.0 ± 1.1 gm

Q: What about the “Cumulative Food Intake, 6 hr” value ([1]; rat, 10 mg/Kg ip) of the same compound?
A: 6.3 ± 2.3 gm

Q: What about the “Cumulative Food Intake, 8 hr” value ([1]; rat, 10 mg/Kg ip) of the same compound?
A: 7.7 ± 2.5 gm

Q: And the “Cumulative Food Intake, 24 hr” value [1, 7]?
A: 26.8 ± 2.8 gm

Q: What about the “Post-Drug Food Intake, 0-1 hr” value [1, 8] of the same compound?
A: 0.1 ± 0.2 gm

Q: What about the “Post-Drug Food Intake, 1-2 hr” value ([1]; rat, 25 mg/Kg ip) of the same compound?
A: 0.1 ± 0.2 gm

Q: And the “Post-Drug Food Intake, 2-6 hr” value ([1]; rat, 25 mg/Kg ip)?
A: 2.1 ± 2.3 gm

Q: And the “Post-Drug Food Intake, 6-8 hr” value ([1]; rat, 25 mg/Kg ip)?
A: 0.9 ± 0.7 gm

Q: And the “Post-Drug Food Intake, 8-24 hr” value [1, 8]?
A: 17.1 ± 2.1 gm

Q: What about the “Cumulative Food Intake, 1 hr” value [1, 9] of the same compound?
A: 0.1 ± 0.2 gm

Q: And the “Cumulative Food Intake, 2 hr” value [1, 9]?
A: 0.2 ± 0.3 gm

Q: What about the “Cumulative Food Intake, 6 hr” value [1, 9] of the same compound?
A: 2.2 ± 2.4 gm

Q: And the “Cumulative Food Intake, 8 hr” value [1, 9]?
A: 3.0 ± 2.6 gm

Q: What about the “Cumulative Food Intake, 24 hr” value [1, 9] of the same compound?
A: 20.1 ± 2.6 gm

Q: What about the “cumulative food intake at 24 hours vs controls” value ([1]; rat, 25 mg/kg ip, 24 hours) of the same compound?
A: substantially lower cumulative food intake at 24 hours post-injection than controls

Q: What about the “food consumption, dose relation” value ([1]; rat, 5, 10, 25 mg/kg ip) of the same compound?
A: dose-related decrement in food consumption

Q: What about the “rebound feeding in the 1-6 hr interval” value ([1]; rat, 5 and 10 mg/kg ip, not statistically significant) of the same compound?
A: varying degrees of rebound feeding

Q: What about the “food intake at 2 hours post-injection vs control” value ([1]; rat, all experimental groups (5, 10, 25 mg/kg ip), 2 hours) of the same compound?
A: significantly lower than control values

Q: What about the “food intake in the first hour after drug administration” value ([1]; rat, ip, first hour) of the same compound?
A: highly significant fall in food intake

Q: What about the “cumulative amount of 25% Carbohydrate diet consumed, 1 hr” value ([2]; 1.5 mg/Kg) of the same compound?
A: 5.6 ± 0.3 grams

Q: And the “cumulative amount of 25% Carbohydrate diet consumed, 2 hr” value ([2]; 1.5 mg/Kg)?
A: 7.6 ± 1.0 grams

Q: What about the “cumulative amount of 75% Carbohydrate diet consumed, 1 hr” value ([2]; 1.5 mg/Kg) of the same compound?
A: 4.4 ± 0.2 grams

Q: And the “cumulative amount of 75% Carbohydrate diet consumed, 2 hr” value ([2]; 1.5 mg/Kg)?
A: 5.8 ± 0.8 grams

Q: What about the “cumulative amount of 25% Carbohydrate diet consumed, 1 hr” value ([2]; 3.0 mg/Kg) of the same compound?
A: 5.4 ± 0.3 grams

Q: And the “cumulative amount of 25% Carbohydrate diet consumed, 2 hr” value ([2]; 3.0 mg/Kg)?
A: 7.0 ± 1.1 grams

Q: What about the “cumulative amount of 75% Carbohydrate diet consumed, 1 hr” value ([2]; 3.0 mg/Kg) of the same compound?
A: 4.5 ± 0.2 grams

Q: And the “cumulative amount of 75% Carbohydrate diet consumed, 2 hr” value ([2]; 3.0 mg/Kg)?
A: 6.0 ± 1.3 grams

Q: And the “consumption of low carbohydrate diet vs controls” value ([2]; 1.5 or 3.0 mg/Kg, 25% carbohydrate)?
A: consumed equivalent quantities of the low carbohydrate diet

Q: What about the “consumption of high carbohydrate diet vs controls” value ([2]; 1.5 or 3.0 mg/Kg, 75% carbohydrate) of the same compound?
A: consumed significantly less of the high carbohydrate diet than did controls

Q: What about the LD50 [3] of the same compound?
A: > 100 mg/kg

Q: And the “central nervous system depression” value [4]?
A: CNS depressants and tranquilizing agents

Q: For O=C(NCCN1CCOCC1)c1sc2ccccc2c1Br [3-bromo-2-(N-morpholinoethyl)benzo[b]thiophene carboximide], which anticonvulsant properties [5] is on record?
A: anticonvulsant properties

Q: And the antidepressant activity [5]?
A: antidepressant activity
